# Results as given in patent US8658661B2, “Oxadiazole inhibitors of leukotriene production” (Boehringer Ingelheim International GmbH, priority 2010, dated 2014).
# Experiments:
# [1] = biological target: T1, recombinant human FLAP protein (Homo sapiens, UniProt P20292); test: FLAP binding assay (SPA, displacement of [125I]L-691,831); details: membranes of sf9 cells expressing recombinant human FLAP; [125I]L-691,831 probe; read-out: FLAP binding IC50
# T1 construct: made in house; host or cells: Sf9 insect cells (100,000×g membrane pellet used)
# T1 sequence (P20292 1-161): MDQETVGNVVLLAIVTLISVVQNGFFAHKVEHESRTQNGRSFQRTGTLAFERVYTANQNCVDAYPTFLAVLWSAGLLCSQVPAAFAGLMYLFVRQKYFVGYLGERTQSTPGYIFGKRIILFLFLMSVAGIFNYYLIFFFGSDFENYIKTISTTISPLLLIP
# Method in brief: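 Membranes from sf9 cells expressing human FLAP in pH 7.5 Tris buffer (MgCl2, EDTA, PMSF). Non-specific binding defined with 10 μM cold L-691,831.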
# [2] = tested on: synthesis of LTB4 in human whole blood; test: Human whole blood assay (inhibition of LTB4 synthesis, calcimycin stimulated); type: cell-based; details: heparinized human whole blood, calcimycin 20 μM, plasma LTB4
# Method in brief: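 Heparinized human whole blood preincubated with compound 15 min at 37 °C, then stimulated with calcimycin (20 μM final) for 30 min at 37 °C. Plasma LTB4 measured after low-speed centrifugation by antibody-based homogeneous time-resolved fluorescence.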
IC50 [1] [µM],IC50 [2] [µM],Compound
0.0098,0.096,"COC1CCN(c2nc(C(C)(c3ccc(-c4cnc(N)nc4)cc3)C(C)C)no2)CC1 (centres unmarked) [Example 270, 5-(4-{1-[5-(4-Methoxy-piperidin-1-yl)-[1,2,4]oxadiazol-3-yl]-1,2-dimethyl-propyl}-phenyl)-pyrimidin-2-ylamine]"
0.0092,0.9,"CC(C)C(C)(c1ccc(-c2cnc(N)nc2)cc1)c1noc(C2CCCCC2)n1 (centres unmarked) [Example 119, 5-{4-[2-(5-cyclohexyl-1,2,4-oxadiazol-3-yl)-3-methylbutan-2-yl]phenyl}pyrimidin-2-amine]"
0.014,0.31,"CC(C)C(C)(c1ccc(-c2cnc(N)nc2)cc1)c1noc(N2CCN(S(C)(=O)=O)CC2)n1 (centres unmarked) [Example 170, 5-(4-{1-[5-(4-Methanesulfonyl-piperazin-1-yl)-[1,2,4]oxadiazol-3-yl]-1,2-dimethyl-propyl}-phenyl)-pyrimidin-2-ylamine]"
0.002,0.036,"CC(C)C(C)(c1ccc(-c2cnc(N)nc2)cc1)c1noc(-c2cnn(C3COC3)c2)n1 (centres unmarked) [Example 161, 5-[4-(3-methyl-2-{5-[1-(oxetan-3-yl)-1H-pyrazol-4-yl]-1,2,4-oxadiazol-3-yl}butan-2-yl)phenyl]pyrimidin-2-amine]"
0.0013,0.24,"CC(C)[C@@](C)(c1ccc(-c2cnc(N)nc2)cc1)c1noc(-c2cn[nH]c2)n1 [Example 78, 5-(4-{(2S)-3-methyl-2-[5-(1H-pyrazol-4-yl)-1,2,4-oxadiazol-3-yl]butan-2-yl}phenyl)pyrimidin-2-amine]"
0.094,0.9,"CC(C)C(C)(c1ccc(-c2cnc(N)nc2)cc1)c1noc(N(C)CCN(C)C)n1 (centres unmarked) [Example 260, N-(3-{1-[4-(2-Amino-pyrimidin-5-yl)-phenyl]-1,2-dimethyl-propyl}-[1,2,4]oxadiazol-5-yl)-N,N′,N′-trimethyl-ethane-1,2-diamine]"
0.0083,0.19,"CCNc1nc(C(C)(c2ccc(-c3cnc(N)nc3)cc2)C(C)C)no1 (centres unmarked) [Example 134, 5-(4-{2-[5-(ethylamino)-1,2,4-oxadiazol-3-yl]-3-methylbutan-2-yl}phenyl)pyrimidin-2-amine]"
0.0011,0.014,"COCCn1cc(-c2nc([C@@](C)(c3ccc(-c4cnc(N)nc4)cc3)C(C)C)no2)cn1 [Example 63, 5-{4-[(2R)-2-{5-[1-(2-methoxyethyl)-1H-pyrazol-4-yl]-1,2,4-oxadiazol-3-yl}-3-methylbutan-2-yl]phenyl}pyrimidin-2-amine]"
0.014,0.61,"CC(C)C(C)(c1ccc(-c2cnc(N)nc2)cc1)c1noc(-c2cccc(S(C)(=O)=O)c2)n1 (centres unmarked) [Example 148, 5-[4-(3-methyl-2-{5-[3-(methylsulfonyl)phenyl]-1,2,4-oxadiazol-3-yl}butan-2-yl)phenyl]pyrimidin-2-amine]"
0.0016,0.15,"Cc1ncccc1-c1nc(C(C)(c2ccc(-c3cnc(N)nc3)cc2)C(C)C)no1 (centres unmarked) [Example 5, 5-(4-{3-methyl-2-[5-(2-methylpyridin-3-yl)-1,2,4-oxadiazol-3-yl]butan-2-yl}phenyl)pyrimidin-2-amine]"
0.016,0.41,"COCCn1cc(-c2nc([C@](C)(c3ccc(-c4cnc(N)nc4)cc3)C(C)C)no2)cn1 [Example 64, 5-{4-[(2S)-2-{5-[1-(2-methoxyethyl)-1H-pyrazol-4-yl]-1,2,4-oxadiazol-3-yl}-3-methylbutan-2-yl]phenyl}pyrimidin-2-amine]"
0.0046,0.18,"Cc1nc(C)c(-c2nc(C(C)(c3ccc(-c4cnc(N)nc4)cc3)C(C)C)no2)s1 (centres unmarked) [Example 153, 5-(4-{2-[5-(2,4-dimethyl-1,3-thiazol-5-yl)-1,2,4-oxadiazol-3-yl]-3-methylbutan-2-yl}phenyl)pyrimidin-2-amine]"
0.0082,0.1,"CC(C)C(C)(c1ccc(-c2cnc(N)nc2)cc1)c1noc(N2CCC(CO)CC2)n1 (centres unmarked) [Example 209, [1-(3-{1-[4-(2-Amino-pyrimidin-5-yl)-phenyl]-1,2-dimethyl-propyl}-[1,2,4]oxadiazol-5-yl)-piperidin-4-yl]-methanol]"
0.0075,0.28,"CC(C)C(C)(c1ccc(-c2cnc(N)nc2)cc1)c1noc(N2CCC(C(C)(C)O)CC2)n1 (centres unmarked) [Example 198, 2-[1-(3-{1-[4-(2-Amino-pyrimidin-5-yl)-phenyl]-1,2-dimethyl-propyl}-[1,2,4]oxadiazol-5-yl)-piperidin-4-yl]-prop an-2-ol]"
0.031,1.2,"CC(C)C(C)(c1ccc(-c2cnc(N)nc2)cc1)c1noc(C2(C)CCCC2)n1 (centres unmarked) [Example 117, 5-(4-{3-methyl-2-[5-(1-methylcyclopentyl)-1,2,4-oxadiazol-3-yl]butan-2-yl}phenyl)pyrimidin-2-amine]"
0.0031,0.026,"CC(C)C(C)(c1ccc(-c2cnc(N)nc2)cc1)c1noc(-c2cnn(CCN3CCOCC3)c2)n1 (centres unmarked) [Example 144, 5-{4-[3-methyl-2-(5-{1-[2-(morpholin-4-yl)ethyl]-1H-pyrazol-4-yl}-1,2,4-oxadiazol-3-yl)butan-2-yl]phenyl}pyrimidin-2-amine]"

# Second part, the molecule before the results:
Compound,IC50 [1] [µM],IC50 [2] [µM]
"CN(C)C(=O)Cn1cc(-c2nc([C@@](C)(c3ccc(-c4cnc(N)[nH]c4=O)cc3)C3CC3)no2)cn1 [Example 197, 2-[4-(3-{(R)-1-[4-(2-amino-6-oxo-1,6-dihydro-pyrimidin-5-yl)-phenyl]-1-cyclopropyl-ethyl}-[1,2,4]oxadiazol-5-yl)-pyrazol-1-yl]-N,N-dimethyl-acetamide]",0.016,> 5
"CC(c1ccc(-c2cnc(N)nc2)cc1)(c1noc(-c2cncn2C2COC2)n1)C1CC1 (centres unmarked) [Example 206, 5-(4-{1-Cyclopropyl-1-[5-(3-oxetan-3-yl-3H-imidazol-4-yl)-[1,2,4]oxadiazol-3-yl]-ethyl}-phenyl)-pyrimidin-2-ylamine]",0.023,0.31
"Cc1nc(N)nc(F)c1-c1ccc([C@](C)(c2noc(-c3cnn(CC(=O)N(C)C)c3)n2)C2CC2)cc1 [Example 298, 2-[4-(3-{(R)-1-[4-(2-Amino-4-fluoro-6-methyl-pyrimidin-5-yl)-phenyl]-1-cyclopropyl-ethyl}-[1,2,4]oxadiazol-5-yl)-pyrazol-1-yl]-N,N-dimethyl-acetamide]",0.01,0.13
"CCNc1ncc(-c2ccc(C(C)(c3noc(-c4cnn(CC(=O)N(C)C)c4)n3)C3CC3)cc2)cn1 (centres unmarked) [Example 249, 2-[4-(3-{1-Cyclopropyl-1-[4-(2-ethylamino-pyrimidin-5-yl)-phenyl]-ethyl}-[1,2,4]oxadiazol-5-yl)-pyrazol-1-yl]-N,N-dimethyl-acetamide]",0.37,> 5
"Cn1cc(-c2nc([C@@](C)(c3ccc(-c4cnc(N)nc4)cc3)C3CCC3)no2)cn1 [Example 121, 5-(4-{(1R)-1-cyclobutyl-1-[5-(1-methyl-1H-pyrazol-4-yl)-1,2,4-oxadiazol-3-yl]ethyl}phenyl)pyrimidin-2-amine]",0.0026,0.091
"CN(C)C(=O)Cn1cc(-c2nc([C@@](C)(c3ccc(-c4cnc(N)nc4F)cc3)C3CC3)no2)cn1 [Example 293, 2-[4-(3-{(R)-1-[4-(2-Amino-4-fluoro-pyrimidin-5-yl)-phenyl]-1-cyclopropyl-ethyl}-[1,2,4]oxadiazol-5-yl)-pyrazol-1-yl]-N,N-dimethyl-acetamide]",0.0035,0.11
"CC(C)C(C)(c1ccc(-c2cnc(N)nc2)cc1)c1noc(-c2cnn(C)c2)n1 (centres unmarked) [Example 15, 5-(4-{3-methyl-2-[5-(1-methyl-1H-pyrazol-4-yl)-1,2,4-oxadiazol-3-yl]butan-2-yl}1phenyl)pyrimidin-2-amine]",0.002,0.046
"CC(c1ccc(-c2cnc(N)nc2)cc1)(c1noc(-c2cnn(C3COC3)c2)n1)C1CC1 (centres unmarked) [Example 43, 5-[4-(1-cyclopropyl-1-{5-[1-(oxetan-3-yl)-1H-pyrazol-4-yl]-1,2,4-oxadiazol-3-yl}ethyl)phenyl]pyrimidin-2-amine]",0.0025,0.03
"Cn1cc(-c2nc(C(C)(c3ccc(-c4cnc5[nH]ccc5c4)cc3)C3CC3)no2)cn1 (centres unmarked) [Example 253, 5-(4-{1-Cyclopropyl-1-[5-(1-methyl-1H-pyrazol-4-yl)-[1,2,4]oxadiazol-3-yl]-ethyl}-phenyl)-1H-pyrrolo[2,3-b]pyridine]",0.0038,0.12
"CN(C)C(=O)Cn1cc(-c2nc([C@](C)(c3ccc(-c4cnc(N)nc4)cc3)C3CCC3)no2)cn1 [Example 105, 2-[4-(3-{(1S)-1-[4-(2-aminopyrimidin-5-yl)phenyl]-1-cyclobutylethyl}-1,2,4-oxadiazol-5-yl)-1H-pyrazol-1-yl]-N,N-dimethylacetamide]",0.49,> 5
"COCCn1cc(-c2nc(C(C)(C)c3ccc(-c4cnc(N)nc4)cc3)no2)cn1 [Example 76, 5-[4-(2-{5-[1-(2-methoxyethyl)-1H-pyrazol-4-yl]-1,2,4-oxadiazol-3-yl}propan-2-yl)phenyl]pyrimidin-2-amine]",0.035,0.27
"C[C@](c1ccc(-c2cnc(N)nc2)cc1)(c1noc(-c2cnn(C3COC3)c2)n1)C1CC1 [Example 55, 5-{4-[(1S)-1-cyclopropyl-1-{5-[1-(oxetan-3-yl)-1H-pyrazol-4-yl]-1,2,4-oxadiazol-3-yl}ethyl]phenyl}pyrimidin-2-amine]",0.011,0.2
